Laboratory results from patent US20230212164A1, “ANNULATED 2-AMINO-3-CYANO THIOPHENES AND DERIVATIVES FOR THE TREATMENT OF CANCER” (BOEHRINGER INGELHEIM INTERNATIONAL GMBH, priority 2020, published 2023).
Read-outs that look alike come from different tables or passages of the source.

Assays:
[1] = target: KRASG12-dependent Ba/F3 cells (Homo sapiens, UniProt P01116, G12C, cells depend on it); test: Ba/F3 cell model proliferation assay (AlamarBlue, 72 h); assay type: cell-based; conditions: Ba/F3 cells transduced with KRASG12C, read-out: IC50 Ba/F3 KRASG12C
Experimental: Ba/F3 Cell Model Generation and Proliferation Assay
Plasmids containing KRASG12 mutants were obtained from GeneScript. To generate KRASG12-dependent Ba/F3 models, Ba/F3 cells were transduced with retroviruses containing vectors that harbor KRASG12 isoforms. Platinum-E cells (Cell Biolabs) were used for retrovirus packaging. Retrovirus was added to Ba/F3 cells. To ensure infection, 4 μg/mL polybrene was added and cells were spinfected. […] Cells with an infection efficiency of 10% to 20% were further cultivated and puromycin selection with 1 μg/mL was initiated. As a control, parental Ba/F3 cells were used to show selection status. Selection was considered successful when parental Ba/F3 cells cultures died. To evaluate the transforming potential of KRASG12 mutations, the growth medium was no longer supplemented with IL-3. Ba/F3 cells harboring the empty vector were used as a control. Approximately ten days before conducting the experiments, puromycin was left out.
All treatments were performed in technical duplicates. The assay is run using a fully automated robotic system. Treated cells were incubated for 72 h at 37° C. with 5% CO2.
AlamarBlue™ (ThermoFisher), a viability stain, was added and fluorescence measured in the PerkinElmer Envision HTS Multilabel Reader.

[2] = target: T1, protein-protein interaction between SOS1 and KRAS G12C (Homo sapiens, UniProt P01116, C118S/C51S/C80L/G12C); test: KRAS::SOS1 AlphaScreen binding assay
T1 construct: His6 (N)
Experimental: KRAS::SOS1 AlphaScreen Binding Assay
Assay buffer: • 1×PBS • 0.1% BSA • 0.05% Tween 20
AlphaLISA Glutathione Acceptor Beads and AlphaScreen Streptavidin Donor Beads are mixed in assay buffer at a concentration of 10 μg/mL (final assay concentration) each prior to use and kept at room temperature.
Compounds are diluted to a final start concentration of 100 μM and are tested in duplicate. […] For compound a start concentration of 100 μM, 150 nL of compound solution is transferred per well in 11 concentrations in duplicate with serial 1:5 dilutions.
The assay is run using a fully automated robotic system in a darkened room below 100 Lux. 10 μL of KRAS::SOS1 GDP mix is added into columns 1-24 to the 150 nL of compound solution (final dilution in the assay 1:100, final DMSO concentration 1%).
After 30 minutes incubation time 5 μL of bead mix is added into columns 1-23. Plates are kept at room temperature in a darkened incubator. After further 60 minutes incubation, the signal is measured using a PerkinElmer Envision HTS Multilabel Reader using the AlphaScreen specifications from PerkinElmer. Each plate contains the following controls: • diluted DMSO+KRAS::SOS1 GDP mix+bead mix • diluted DMSO+KRAS::SOS1 GDP mix
IC50 values are calculated and analyzed using a 4 parametric logistic model.

[3] = tested on: pERK (Thr202/Tyr204) in NCI-H358 (KRAS G12C mutation); test: ERK phosphorylation assay 1 (AlphaLISA SureFire Ultra p-ERK1/2)
Experimental: ERK Phosphorylation Assay
Materials Used for the Assay:
AlphaLISA SureFire Ultra p-ERK1/2 (Thr202/Tyr204) Assay Kit (ALSU-PERK-A500)
The cells are incubated for 1 h at room temperature and then incubated overnight in an incubator at 37° C. and 5% CO2 in a humidified atmosphere. 60 nL compound solution (10 mM DMSO stock solution) is then added using a Labcyte Echo 550 device. […] After 20 minutes of incubation at room temperature with shaking, 6 μL of each lysate sample is transferred to a 384-well Proxiplate and analyzed for pERK (Thr202/Tyr204) with the AlphaLISA SureFire Ultra pERK1/2 (Thr202/Tyr204) Assay Kit. 3 μL Acceptor Mix and 3 μL Donor Mix are added under subdued light and incubated for 2 h at room temperature in the dark, before the signal is measured on a PerkinElmer Envision HTS Multilabel Reader. The raw data were imported into and analyzed with the Boehringer Ingelheim proprietary software MegaLab (curve fitting based on the program PRISM, GraphPad Inc.).

[4] = Homo sapiens, NCI-H358, read-out: IC50 H358 pERK

T1 sequence (P01116 1-169 isoform P01116-2 G12C/C51S/C80L/C118S): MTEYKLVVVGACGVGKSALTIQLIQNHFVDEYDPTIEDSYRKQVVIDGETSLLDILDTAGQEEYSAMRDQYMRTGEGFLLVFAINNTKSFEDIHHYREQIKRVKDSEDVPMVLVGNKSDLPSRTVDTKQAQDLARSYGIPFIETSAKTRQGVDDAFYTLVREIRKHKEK
Sequence of KRASG12-dependent Ba/F3 cells (P01116 whole entry G12C): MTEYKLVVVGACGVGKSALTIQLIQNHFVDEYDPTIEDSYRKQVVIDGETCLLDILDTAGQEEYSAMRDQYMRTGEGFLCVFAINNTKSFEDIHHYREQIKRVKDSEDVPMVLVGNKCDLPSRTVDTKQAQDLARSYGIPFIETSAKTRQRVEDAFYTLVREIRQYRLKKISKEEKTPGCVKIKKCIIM

Row | SMILES | GI50 [1] | IC50 ([2]; Table 36) | IC50 [3, 4] | IC50 ([2]; Table 35) | IC50 ([3]; read-out: IC50 H358 pERK, ERK phosphorylation assay 1 (values not marked with *), NCI-H358)
1 | C=CC(=O)N(C)CCOc1cc(-c2noc([C@@]3(C)CCCc4sc(N)c(C#N)c43)n2)nc(N2CCCN(C)C[C@@H]2C)n1 [Ia-74] | 254 nM | 61 nM | – | – | –
2 | C=CC(=O)N1CCC2(C1)CN(c1cc(-c3noc([C@@]4(C)CCCc5sc(N)c(C#N)c54)n3)cc(N3CCCN(C)C[C@@H]3C)n1)C2 [Ia-95] | 946 nM | 46 nM | – | – | –
3 | C=CC(=O)N1CCN(C2CN(c3cc(-c4noc([C@@]5(C)CCCc6sc(N)c(C#N)c65)n4)nc(N4CCCN(C)C[C@@H]4C)n3)C2)CC1 [Ia-100] | 2200 nM | 84 nM | – | – | –
4 | C=CC(=O)N1CCN(c2cc(-c3noc([C@@]4(C)CCCc5sc(N)c(C#N)c54)n3)nc(N3CCCN(CC4(C)COC4)C[C@@H]3C)n2)CC1 [Ia-41] | 10.2 nM | 1.8 nM | – | – | –
5 | C=CC(=O)N1C[C@@H]2CN(c3cc(-c4noc([C@@]5(C)CCCc6sc(N)c(C#N)c65)n4)nc(N4CCCN(C)C[C@@H]4C)n3)[C@@H]2C1 [Ia-101] | 933 nM | 44 nM | – | – | –
6 | C=CC(=O)N1CCN(c2cc(-c3noc([C@@]4(C)CCCc5sc(N)c(C#N)c54)n3)nc(N3CCCN([C@@H]4CCOC4)C[C@@H]3C)n2)CC1 [Ia-43] | 2.7 nM | 1.7 nM | – | – | –
7 | C=CC(=O)N1CCN(c2cc(-c3noc(C4(C)CC(F)(F)Cc5sc(N)c(C#N)c54)n3)nc(N3CCN(C)CC3)c2)CC1 (centres unmarked) [Ia-113] | – | 730 nM | 376 nM | – | –
8 | C=CC(=O)N1CCN(c2cc(-c3noc(C4(C)CCCc5sc(N)c(C#N)c54)n3)nc(N3CCN(C4CCCC4)CC3)c2)CC1 (centres unmarked) [Ia-122] | – | 71 nM | 19.3 nM | – | –
9 | C=CC(=O)N1CCN(c2cc(-c3noc(C4(C)CCCc5sc(N)c(C#N)c54)n3)nc(N3C4CCC3CN(C)C4)c2)CC1 (centres unmarked) [Ia-16] | – | 106 nM | 24.6 nM | – | –
10 | C=CC(=O)N1CCC(Oc2cc(-c3noc(C4(C)CCCc5sc(N)c(C#N)c54)n3)nc(N3CCN(C)CC3)c2)CC1 (centres unmarked) [Ia-141] | – | 71 nM | 39.6 nM | – | –
11 | C=CC(=O)N1CCC(Oc2cc(-c3noc(C4(C)CCCc5sc(N)c(C#N)c54)n3)nc(N3CCC(N4CCOCC4)CC3)c2)CC1 (centres unmarked) [Ia-30] | – | 103 nM | 20.1 nM | – | –
12 | C=CC(=O)N1CCN(c2cc(-c3noc(C4(C)CCC(C)c5sc(N)c(C#N)c54)n3)nc(N3CCN(C4CCCC4)CC3)c2)CC1 (centres unmarked) [Ia-10] | – | 254 nM | 38.5 nM | – | –
13 | C=CC(=O)N1CCN(c2cc(-c3noc(C4(C)CCCc5sc(N)c(C#N)c54)n3)nc(N3C[C@@H]4C[C@H]3CN4C3CCCC3)c2)CC1 (some centres unmarked) [Ia-115] | – | 63 nM | 8.8 nM | – | –
14 | C=CC(=O)N1CCN(c2cc(-c3noc(C4(C)CCCc5sc(N)c(C#N)c54)n3)nc(N3CCN(C4CCN(C)CC4)CC3)c2)CC1 (centres unmarked) [Ia-28] | – | 152 nM | 785 nM | – | –
15 | C=CC(=O)N1CCN(c2cc(-c3noc(C4(C)CCCc5sc(N)c(C#N)c54)n3)nc(N3CCN(CC)C(C)C3)c2)CC1 (centres unmarked) [Ia-152] | – | 43 nM | 5.9 nM | – | –
16 | C=CC(=O)N1CCN(c2cc(-c3noc(C4(C)CCCc5sc(N)c(C#N)c54)n3)nc(N3CCC(N4CCCC4)CC3)c2)CC1 (centres unmarked) [Ia-36] | – | 24 nM | 12.2 nM | – | –
17 | C=CC(=O)N1CCN(c2cc(-c3noc(C4(C)CCCc5sc(N)c(C#N)c54)n3)cc(N3CCC(N4CCOCC4)CC3)c2)CC1 (centres unmarked) [Ia-32] | – | 255 nM | 35.6 nM | – | –
18 | C=CC(=O)N1CCC(c2cc(-c3noc(C4(C)CCCc5sc(N)c(C#N)c54)n3)nc(N3CCN(C)CC3)c2)CC1 (centres unmarked) [Ia-1] | – | – | 31.4 nM | 123 nM | –
19 | C=CC(=O)N1CCN(c2cc(-c3noc([C@@]4(C)CCCc5sc(N)c(C#N)c54)n3)nc(N3CCCN(CCCOC)C[C@@H]3C)n2)CC1 [Ia-42] | – | 1.8 nM | 2.8 nM | – | –

Row | SMILES | GI50 [1] | IC50 ([2]; Table 36) | IC50 [3, 4] | IC50 ([2]; Table 35) | IC50 ([3]; read-out: IC50 H358 pERK, ERK phosphorylation assay 1 (values not marked with *), NCI-H358)
20 | C=CC(=O)N1CCN(c2cc(-c3noc(C4(C)CCCc5sc(N)c(C#N)c54)n3)nc(N3CCC(N4CCCCC4)CC3)c2)CC1 (centres unmarked) [Ia-37] | – | 47 nM | 12.3 nM | – | –
21 | C=CC(=O)N1CCN(c2cc(-c3noc(C4(C)CCC(C)c5sc(N)c(C#N)c54)n3)nc(N3CCN(C)CC3)c2)CC1C (centres unmarked) [Ia-104] | – | 635 nM | 71.8 nM | – | –
22 | C=CC(=O)N1CCN(c2cc(-c3noc(C4(C)CCCc5sc(N)c(C#N)c54)n3)nc(N3CCC(N4CCC(F)C4)CC3)c2)CC1 (centres unmarked) [Ia-38] | – | 22 nM | 5.8 nM | – | –
23 | C=CC(=O)N1CCN(c2cc(-c3noc(C4(C)CCC(C)c5sc(N)c(C#N)c54)n3)nc(N3CCN(CC)CC3)c2)CC1 (centres unmarked) [Ia-105] | – | 145 nM | 14.4 nM | – | –
24 | C=CC(=O)N1CCN(c2cc(-c3noc(C4(C)CCCc5sc(N)c(C#N)c54)n3)nc(N3CCN4CCCCC4C3)c2)CC1 (centres unmarked) [Ia-149] | – | 47 nM | 8.6 nM | – | –
25 | C=CC(=O)N1CCC(Oc2cc(-c3noc(C4(C)CCCc5sc(N)c(C#N)c54)n3)nc(N3CCN(C4CCCC4)CC3)c2)CC1 (centres unmarked) [Ia-111] | – | 418 nM | 92.5 nM | – | –
26 | C=CC(=O)N1CCN(c2cc(OC3CCN(C)CC3)nc(-c3noc(C4(C)CCCc5sc(N)c(C#N)c54)n3)c2)CC1 (centres unmarked) [Ia-118] | – | 21 nM | 7.5 nM | – | –
27 | C=CC(=O)N1CCN(c2cc(-c3noc(C4(C)CCCc5sc(N)c(C#N)c54)n3)nc(N3CCN(CC4CC4)CC3)c2)CC1 (centres unmarked) [Ia-146] | – | 50 nM | – | – | 9.9 nM
28 | C=CC(=O)N1CCN(c2cc(-c3noc(C4(C)CCCc5sc(N)c(C#N)c54)n3)nc(N3CCN(C(C)C)C(C)C3)c2)CC1 (centres unmarked) [Ia-150] | – | 71 nM | 9.5 nM | – | –
29 | C=CC(=O)N1CCN(c2cc(-c3noc(C4(C)CCC(C)c5sc(N)c(C#N)c54)n3)nc(N3CCN(CC4CC4)CC3)c2)CC1 (centres unmarked) [Ia-106] | – | 180 nM | 25.2 nM | – | –
30 | C=CC(=O)N1CCC(Oc2cc(-c3noc(C4(C)CCC(C)c5sc(N)c(C#N)c54)n3)nc(N3CCN(C)CC3)c2)CC1 (centres unmarked) [Ia-120] | – | 405 nM | 111 nM | – | –
31 | C=CC(=O)N1CCN(c2cc(-c3noc(C4(C)CCCc5sc(N)c(C#N)c54)n3)nc(N3CCN4CCC[C@H]4C3)c2)CC1 (some centres unmarked) [Ia-148] | – | 24 nM | 5.9 nM | – | –
32 | C=CC(=O)N1CCN(c2cc(-c3noc(C4(C)CCCc5sc(N)c(C#N)c54)n3)nc(N3CC[C@H](N4CCCC4)C3)c2)CC1 (some centres unmarked) [Ia-20] | – | 130 nM | 20.7 nM | – | –
33 | C=CC(=O)N1CCN(c2cc(-c3noc(C4(C)CCCc5sc(N)c(C#N)c54)n3)nc(N3CCN(C)CC34CC4)c2)CC1 (centres unmarked) [Ia-25] | – | 186 nM | 112 nM | – | –
34 | C=CC(=O)N1CCN(c2cc(-c3noc(C4(C)CCCc5sc(N)c(C#N)c54)n3)nc(N3CCN4CCC[C@@H]4C3)c2)CC1 (some centres unmarked) [Ia-153] | – | 31 nM | 11.6 nM | – | –
35 | C=CC(=O)N1CCN(c2cc(-c3noc(C4(C)CCCc5sc(N)c(C#N)c54)n3)nc(N3CCC(N4CC[C@H](F)C4)CC3)c2)CC1 (some centres unmarked) [Ia-40] | – | 19 nM | 5.3 nM | – | –
36 | C=CC(=O)N1CCN(c2cc(-c3noc(C4(C)CCCc5sc(N)c(C#N)c54)n3)nc(N3CCN(CC4CC4)CC3)c2)CC1 (centres unmarked) [Ia-121] | – | 50 nM | 9.9 nM | – | –
37 | C=CC(=O)N1CCN(c2cc(-c3noc(C4(C)CCCc5sc(N)c(C#N)c54)n3)nc(N3CCC(N4CCCC4)C3)c2)CC1 (centres unmarked) [Ia-23] | – | 47 nM | 6.5 nM | – | –
